Key:
[1] = molecular target: T1, human cannabinoid CB1 receptor (Homo sapiens, UniProt P21554); assay: In vitro affinity for cannabinoid-CB1 receptors ([3H]CP-55,940 radioligand binding, CHO cell membranes); settings: mean of at least three independent experiments, read-out: Human CB1 receptor binding pKi (converted)
T1 construct: expressed in transfected cells; host or cells: CHO cells, stably transfected; membrane preparation
Experimental: In Vitro Affinity for Cannabinoid-CB1 Receptors
(§1) The affinity of the compounds of the invention for cannabinoid CB1 receptors can be determined using membrane preparations of Chinese hamster ovary (CHO) cells in which the human cannabinoid CB1 receptor is stably transfected in conjunction with [^3H]CP-55,940 as radioligand. After incubation of a freshly prepared cell membrane preparation with the [^3H]-ligand, with or without addition of compounds of the invention, separation of bound and free ligand is performed by filtration over glassfiber filters. Radioactivity on the filter is measured by liquid scintillation counting.

[2] = molecular target: T2, human cannabinoid CB2 receptor (Homo sapiens, UniProt P34972); assay: In vitro affinity for cannabinoid-CB2 receptors ([3H]CP-55,940 radioligand binding, CHO cell membranes); settings: mean of at least three independent experiments, read-out: Human CB2 receptor binding pK1 (converted)
T2 construct: expressed in transfected cells; host or cells: CHO cells, stably transfected; membrane preparation
T2 sequence (P34972 whole entry): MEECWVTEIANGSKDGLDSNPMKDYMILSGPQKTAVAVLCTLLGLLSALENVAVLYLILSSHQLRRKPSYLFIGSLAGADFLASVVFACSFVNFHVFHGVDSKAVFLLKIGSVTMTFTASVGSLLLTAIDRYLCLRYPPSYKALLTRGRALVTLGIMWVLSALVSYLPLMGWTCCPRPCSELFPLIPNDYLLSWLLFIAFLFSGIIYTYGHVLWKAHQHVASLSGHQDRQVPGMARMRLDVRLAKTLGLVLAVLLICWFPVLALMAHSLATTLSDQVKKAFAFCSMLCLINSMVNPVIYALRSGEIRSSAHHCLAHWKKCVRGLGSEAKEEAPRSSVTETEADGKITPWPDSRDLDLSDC
Experimental: In Vitro Affinity for Cannabinoid-CB2 Receptors
as §1, with “CB2” for “CB1”

human CB1 receptor = molecular target: T3, human CB1 receptor (Homo sapiens, UniProt P21554); assay: In vitro cannabinoid-CB1 receptor (ant)agonism: [3H]-arachidonic acid release in CHO cells; assay type: cell-based; settings: CHO cells with human CB1 receptor, read-out: Human CB1 Arachidonic acid release (CB1) pEC50 (converted)
T3 construct: expressed in transfected cells; host or cells: CHO cells
T3 sequence (P21554 whole entry): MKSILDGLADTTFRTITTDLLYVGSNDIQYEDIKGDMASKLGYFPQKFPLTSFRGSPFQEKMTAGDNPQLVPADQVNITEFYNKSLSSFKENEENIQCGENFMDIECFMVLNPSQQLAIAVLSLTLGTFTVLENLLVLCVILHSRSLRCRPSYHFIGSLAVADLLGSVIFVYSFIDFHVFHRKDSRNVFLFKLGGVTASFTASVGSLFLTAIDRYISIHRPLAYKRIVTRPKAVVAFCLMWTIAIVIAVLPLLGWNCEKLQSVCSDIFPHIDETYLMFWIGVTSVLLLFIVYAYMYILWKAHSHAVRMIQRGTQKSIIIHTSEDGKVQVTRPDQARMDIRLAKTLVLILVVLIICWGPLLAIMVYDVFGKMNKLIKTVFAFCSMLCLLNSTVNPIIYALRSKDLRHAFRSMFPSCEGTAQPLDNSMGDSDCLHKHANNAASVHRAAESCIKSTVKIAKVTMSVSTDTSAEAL
Experimental: In Vitro Cannabinoid-CB1Receptor (Ant)Agonism
In vitro CB1 receptor antagonism/agonism can be assessed with the human CB1 receptor cloned in Chinese hamster ovary (CHO) cells. CHO cells are grown in a Dulbecco's Modified Eagle's medium (DMEM) culture medium, supplemented with 10% heat-inactivated fetal calf serum. Medium is aspirated and replaced by DMEM, without fetal calf serum, but containing [^3H]-arachidonic acid and incubated overnight in a cell culture stove (5% CO2/95% air; 37° C.; water-saturated atmosphere). During this period [^3H]-arachidonic acid is incorporated in membrane phospholipids. On the test day, medium is aspirated and cells are washed three times using 0.5 ml DMEM, containing 0.2% bovine serum albumin (BSA). CB1 agonist stimulation leads to activation of PLA2 followed by release of [^3H]-arachidonic acid into the medium. This CB1 agonist-induced release is concentration-dependently antagonized by CB1 receptor antagonists, such as for example rimonabant.

human CB2 receptor = molecular target: T4, human CB2 receptor (Homo sapiens, UniProt P34972); assay: In vitro cannabinoid-CB2 receptor (ant)agonism: forskolin-stimulated cAMP accumulation (adenylate cyclase activity) in CHO K1 cells; assay type: cell-based; settings: for EC50: agonism, 3x10^-7 M forskolin, read-out: Human CB2 CB2-mediated adenylate cyclase activity pEC50 (converted)
T4 construct: host or cells: CHO K1 cells
T4 sequence (P34972 whole entry): as the sequence (P34972 whole entry) above
Experimental: In Vitro Cannabinoid-CB2 Receptor (Ant)Agonism
Functional activity at the cannabinoid CB2 receptor was assessed using a forskolin-stimulated cAMP accumulation assay. The ability of compounds to stimulate and inhibit adenylate cyclase activity was assessed in Chinese ovarian hamster (CHO) K1 cells expressing human CB2 (Euroscreen, Brussel) receptor. CHO cells were grown in a CHO—S—SFM-II culture medium, supplemented with 10% heat-inactivated foetal calf serum, 2 mM glutamine, 400 μg/ml Hygromycine B and 500 μg/ml G418 at 37° C. in 93% air/5% CO2. For incubation with test compounds, confluent cultures grown in 24 well plates were used. Each condition or substance was routinely tested in quadruplicate. Cells were loaded with 1 mCi [^3H]-adenine in 0.5 ml medium per well. After 2 hours, cultures were washed with 0.5 ml PBS containing 1 mM IBMX and incubated for 20 minutes with 0.5 ml PBS containing 1 mM IBMX and 3×10^−7 M forskolin with or without the test compound. Antagonistic effects of test compounds were determined as inhibition of 0.1 μM JWH-133-decreased [^3H]cAMP formation. After aspiration the reaction was stopped with 1 ml trichloroacetic acid (5% w/v). The [3H]-ATP and [^3H]-cAMP formed in the cellular extract were assayed as follows: a volume of 0.8 ml of the extract was passed over Dowex (50WX-4200-400 mesh) and aluminum oxide columns, eluted with water and 0.1 M imidazole (pH=7.5). Eluates were mixed with 7 ml Ultima-Flo [AP] and the β-radioactivity was counted with a liquid scintillation counter. The conversion of [^3H]-ATP into [^3H]-cAMP was expressed as the ratio in percentage radioactivity in the cAMP fraction as compared to the combined radioactivity in both cAMP and ATP fractions, and basal activity was subtracted to correct for spontaneous activity. […] Compounds were studied in a concentration range of 10^−10 M to 10^−6M. pEC50 and the pA2 were calculated according to Cheng-Prusoff equation (Cheng and Prusoff, 1973). […]

T1 sequence (P21554 whole entry): as the sequence (P21554 whole entry) above

| SMILES | Ki [1] [nM] | Ki [2] [nM] | EC50 (human CB1 receptor) [nM] | Human CB2 CB2-mediated adenylate cyclase activity pA2 (human CB2 receptor; antagonism of 0.1 μM JWH-133-decreased [3H]cAMP formation) | melting point [°C] | EC50 (human CB2 receptor) [nM] |
| --- | --- | --- | --- | --- | --- | --- |
| CCCCCC1=NN(C(=O)c2cccc3ccccc23)CC1c1ccccc1 (centres unmarked) [Compound 87, 1-(1-Naphtoyl)-3-(n-pentyl)-4-phenyl-4,5-dihydro-(1H)-pyrazole] | 79.4 | 100 | 15.8 | – | – | – |
| CCCCCC1=NN(C(=O)Nc2cccc3ccccc23)CC1c1ccccc1 (centres unmarked) [Compound 18, N-(1-Naphtyl)-3-(n-pentyl)-4-phenyl-4,5-dihydro-(1H)-pyrazole-1-carboxamide] | 6.31 | 31.6 | – | – | – | – |
| CCCCCC1=NN(C(=O)N[C@H]2C[C@H]3CC[C@]2(C)C3(C)C)CC1c1ccccc1 (stereo partly drawn) [Compound 97, N-Endo-[(1R,2S,4R)-1,7,7-trimethylbicyclo[2.2.1]hept-2-yl]-3-(n-pentyl)-4-phenyl-4,5-dihydro-(1H)-pyrazole-1-carboxamide] | 5.01 | 5.01 | < 1 | 9.2 | – | – |
| CCCCCC1=NN(C(=O)NCC2CCCCC2)CC1c1ccccc1 (centres unmarked) [Compound 12, N-(Cyclohexylmethyl)-3-(n-pentyl)-4-phenyl-4,5-dihydro-(1H)-pyrazole-1-carboxamide] | 15.8 | 50.1 | – | – | – | – |
| CCCCCC1=NN(C(=O)NCC23CC4CC(CC(C4)C2)C3)CC1c1ccccc1 (centres unmarked) [Compound 11, N-(1-Adamantyl)methyl-3-(n-pentyl)-4-phenyl-4,5-dihydro-(1H)-pyrazole-1-carboxamide] | 15.8 | 7.94 | 2000 | – | – | – |
| CC1(C)[C@@H]2CC[C@@]1(C)[C@@H](NC(=O)N1CC(c3ccccc3)C(CC3CC3)=N1)C2 (stereo partly drawn) [Compound 54, N-[Endo-(1R,2S,4R)-1,7,7-trimethylbicyclo[2.2.1]hept-2-yl]-3-(cyclopropylmethyl)-4-phenyl-4,5-dihydro-(1H)-pyrazole-1-carboxamide] | 25.1 | 39.8 | 251 | – | – | – |
| COc1ccc(NC(=O)N2CC(c3ccc(Cl)cc3)C(Cc3ccc(Cl)cc3)=N2)cc1 (centres unmarked) | – | – | – | – | 116 to 119 | – |
| CCCCCC1=NN(C(=O)NC2CCCCCC2)CC1c1ccccc1 (centres unmarked) [Compound 109, N-cycloheptyl-3-(n-pentyl)-4-phenyl-4,5-dihydro-(1H)-pyrazole-1-carboxamide] | 6.31 | 25.1 | – | – | – | – |
| CCCCC1=NN(C(=O)NC(C)(C)Cc2ccccc2)CC1c1ccccc1F (centres unmarked) [Compound 40, N-(2-phenyl-1,1-dimethyl-ethyl)-3-(n-butyl)-4-(2-fluorophenyl)-4,5-dihydro-(1H)-pyrazole-1-carboxamide] | 1580 | 158 | – | – | – | 7.94 |
| CCCCCC1=NN(C(=O)NC[C@@H]2CC[C@H]3C[C@@H]2C3(C)C)CC1c1ccccc1 (relative stereo) [Compound 1, N-[(1R,2S,5R)-rel-6,6-dimethylbicyclo[3.1.1]heptan-2-methyl]-3-(n-pentyl)-4-phenyl-4,5-dihydro-(1H)-pyrazole-1-carboxamide] | 3.98 | 12.6 | 2000 | – | – | – |
| CCCCCC1=NN(C(=O)NC2C3CC4CC(C3)CC2C4)CC1c1ccccc1 (centres unmarked) | – | – | – | – | 71 | – |
| CCCCC1=NN(C(=O)NC(C)(C)Cc2ccccc2)CC1c1cccc(F)c1 (centres unmarked) [Compound 39, N-(2-phenyl-1,1-dimethyl-ethyl)-3-(n-butyl)-4-(3-fluorophenyl)-4,5-dihydro-(1H)-pyrazole-1-carboxamide] | 3980 | 126 | – | – | – | 7.94 |
| CCCCC1=NN(C(=O)NC[C@@H]2CC[C@H]3C[C@@H]2C3(C)C)CC1c1ccccc1 (relative stereo) [Compound 7, N-[(1R,2S,5R)-rel-6,6-dimethylbicyclo[3.1.1]heptan-2-methyl]-3-(n-butyl)-4-phenyl-4,5-dihydro-(1H)-pyrazole-1-carboxamide] | 39.8 | 10 | 631 | – | – | – |
| CCCCCC1=NN(S(=O)(=O)NC[C@@H]2CC[C@H]3C[C@@H]2C3(C)C)CC1c1ccccc1 (relative stereo) [Compound 130, N-[(1R,2S,5R)-rel-6,6-dimethylbicyclo[3.1.1]heptan-2-methyl]-3-(n-pentyl)-4-phenyl-4,5-dihydro-(1H)-pyrazole-1-sulfonamide] | 316 | 126 | – | – | – | – |
| CCCCCC1=NN(C(=O)N[C@H]2C[C@H]3CC[C@]2(C)C3(C)C)CC1c1ccccc1 (stereo partly drawn) [Compound 13, N-[Endo-(1R,2S,4R)-1,7,7-trimethylbicyclo[2.2.1]hept-2-yl]-3-(n-pentyl)-4-phenyl-4,5-dihydro-(1H)-pyrazole-1-carboxamide] | 7.94 | 7.94 | 0.501 | – | – | – |
| O=C(Nc1ccccc1)N1CC(c2ccc(Cl)cc2)C(Cc2ccc(Cl)cc2)=N1 (centres unmarked) [Compound 41, N-Phenyl-3-(4-chlorobenzyl)-4-(4-chlorophenyl)-4,5-dihydro-(1H)-pyrazole-1-carboxamide] | 316 | 200 | – | – | 156 | – |
